US20260223844A1, “METHODS AND COMPOSITIONS FOR ALTERING METABOLITES IN HOP PLANTS” (Impello Biosciences, Inc., priority 2023, published 2026)

Key:
Format in all cases: in vivo, Humulus lupulus
CTZ hop plants [1] = assay: Total oil analysis of treated hop plants, Example 4
Protocol: (§1) Hop plants were treated with illustrative elicitor compositions of the disclosure to determine the effect of treatment on hop bitter acid and terpene content. The hop cultivar was CTZ, also known as Columbus, Tomahawk, or Zeus, three trade names owned by various private corporations for the same variety of hop. The treatments were as follows: 1 mM, 5 mM, and 10 mM MDJ Foliar Spray. Harvested hops were analyzed for total oil, beta acid, alpha acid, and terpene content. Total oil and terpene analysis was performed according to a modified version of Analytica EBC Method 7.12, employing Capillary Gas Chromatography Flame Ionization Detection. Plants were measured in triplicate from each treatment group; results represent the average of three samples. Alpha/beta/iso-alpha acid analysis was performed using HPLC, employing a modified version of Analytica EBC Method 7.8.

CTZ hop plants [2] = assay: Alpha/beta acid analysis of treated hop plants, Example 4 (HPLC, modified EBC 7.8)
Protocol: as §1

Cashmere Hops [3] = assay: Terpene analysis of treated hop plants, Example 2 (EBC 7.12, GC-FID); conditions: 5 mM MDJ foliar spray vs control
Protocol: (§2) Hop plants were treated with illustrative elicitor compositions of the disclosure to determine the effect of treatment on hop terpene content. The hop cultivar was Cashmere Hops. The treatments were as follows: Control (“CK2”)—Untreated control; TR1—1 mM MDJ Foliar Spray: TR2—5 mM MDJ Foliar Spray.
(§3) Harvested hops were analyzed for total oil, beta acid, alpha acid, terpene, and thiol content. Total oil analysis was performed according to Analytica EBC Method 7.10, employing steam distillation. Alpha/beta/iso-alpha acid analysis was performed using HPLC, employing a modified version of Analytica EBC Method 7.8. Terpene analysis was performed according to Analytica EBC Method 7.12, employing Capillary Gas Chromatography Flame Ionization Detection. Thiol composition was analyzed via gas chromatography with sulfur chemiluminescence detector (GC-SCD).

Cashmere Hops [4] = assay: Bitter acids analysis of treated hop plants, Example 2 (HPLC, modified EBC 7.8); conditions: MDJ foliar spray 1 mM or 5 mM vs untreated control
Protocol: as §2, §3

CTZ hop plants [5] = assay: Terpene analysis of treated hop plants, Example 4 (modified EBC 7.12, GC-FID); conditions: % of overall terpene content; for Terpene content: Geranyl acetate 1*: (2E) isomer; for Terpene content: Geranyl acetate 2**: (2Z) isomer; for Terpene content: Nerolidol 1*: (E) isomer; for Terpene content: Nerolidol 2**: (Z) isomer
Protocol: as §1

CCCCCC1C(=O)CCC1CC(=O)OC (stereo not drawn) [MDJ, methyl dihydrojasmonate]
Total oil (CTZ hop plants [1]; 1 mM MDJ foliar spray): 1.43 mL/100 g | Total oil (CTZ hop plants [1]; 5 mM MDJ foliar spray): 2.22 mL/100 g | Total oil (CTZ hop plants [1]; 10 mM MDJ foliar spray): 1.72 mL/100 g | Alpha Acids (CTZ hop plants [2]; 1 mM MDJ foliar spray): 4.83% | Beta Acids (CTZ hop plants [2]; 1 mM MDJ foliar spray): 3.53% | Cohumulone (CTZ hop plants [2]; 1 mM MDJ foliar spray): 21.43 % alpha | Colupulone (CTZ hop plants [2]; 1 mM MDJ foliar spray): 43.53 % beta | Alpha Acids (CTZ hop plants [2]; 5 mM MDJ foliar spray): 6.10% | Beta Acids (CTZ hop plants [2]; 5 mM MDJ foliar spray): 3.83% | Cohumulone (CTZ hop plants [2]; 5 mM MDJ foliar spray): 23.37 % alpha | Colupulone (CTZ hop plants [2]; 5 mM MDJ foliar spray): 49.3 % beta | Alpha Acids (CTZ hop plants [2]; 10 mM MDJ foliar spray): 7.80% | Beta Acids (CTZ hop plants [2]; 10 mM MDJ foliar spray): 4.23% | Cohumulone (CTZ hop plants [2]; 10 mM MDJ foliar spray): 26.03 % alpha | Colupulone (CTZ hop plants [2]; 10 mM MDJ foliar spray): 43.47 % beta | Colupolone content, as a percentage of overall beta acids (CTZ hop plants [2]; 1, 5, 10 mM MDJ foliar spray): highest at 5 mM treatment | alpha acid content (CTZ hop plants [2]; 1, 5, 10 mM MDJ foliar spray): dose-dependent increase | beta acid content (CTZ hop plants [2]; 1, 5, 10 mM MDJ foliar spray): dose-dependent increase | Cohumulone content as a percentage of overall alpha acids (CTZ hop plants [2]; with increasing MDJ concentration (1, 5, 10 mM)): increased | caryophyllene content (Cashmere Hops [3]): increased | caryophyllene oxide content (Cashmere Hops [3]): decreased | citral content (Cashmere Hops [3]): decreased | farnesene content (Cashmere Hops [3]): increased | geraniol content (Cashmere Hops [3]): increased | humulene content (Cashmere Hops [3]): increased | methyl heptanoate content (Cashmere Hops [3]): decreased | methyl laurate content (Cashmere Hops [3]): decreased | methyl octanoate content (Cashmere Hops [3]): increased | methyl thiohexanoate content (Cashmere Hops [3]): increased | myrcene content (Cashmere Hops [3]): decreased | nerolidol content (Cashmere Hops [3]): increased | ocimene content (Cashmere Hops [3]): increased | q-pinene content (Cashmere Hops [3]): increased | β-pinene content (Cashmere Hops [3]): decreased | content of the alpha acid analogue cohumulone (Cashmere Hops [4]): decreased | beta acid content (Cashmere Hops [4]; especially at 5 mM): statistically significant increase | Terpene content: 2-Undecanone (CTZ hop plants [5]; 1 mM MDJ foliar spray): 0.00% | Terpene content: Alpha-pinene (CTZ hop plants [5]; 1 mM MDJ foliar spray): 0.37% | Terpene content: Beta-ionone (CTZ hop plants [5]; 1 mM MDJ foliar spray): 0.08% | Terpene content: Beta-pinene (CTZ hop plants [5]; 1 mM MDJ foliar spray): 0.36% | Terpene content: Caryophyllene (CTZ hop plants [5]; 1 mM MDJ foliar spray): 16.6% | Terpene content: Caryophyllene oxide (CTZ hop plants [5]; 1 mM MDJ foliar spray): 0.12% | Terpene content: Citral (CTZ hop plants [5]; 1 mM MDJ foliar spray): 0.32% | Terpene content: Citronellene (CTZ hop plants [5]; 1 mM MDJ foliar spray): 0.42% | Terpene content: Citronellol (CTZ hop plants [5]; 1 mM MDJ foliar spray): 0.00% | Terpene content: Farnesene (CTZ hop plants [5]; 1 mM MDJ foliar spray): 0.00% | Terpene content: Geraniol (CTZ hop plants [5]; 1 mM MDJ foliar spray): 0.52% | Terpene content: Humulene (CTZ hop plants [5]; 1 mM MDJ foliar spray): 38.7% | Terpene content: Limonene (CTZ hop plants [5]; 1 mM MDJ foliar spray): 0.10% | Terpene content: Linalool (CTZ hop plants [5]; 1 mM MDJ foliar spray): 0.21% | Terpene content: Methyl Heptanoate (CTZ hop plants [5]; 1 mM MDJ foliar spray): 0.06% | Terpene content: Methyl Laurate (CTZ hop plants [5]; 1 mM MDJ foliar spray): 0.39% | Terpene content: Methyl Octanoate (CTZ hop plants [5]; 1 mM MDJ foliar spray): 0.44% | Terpene content: Methyl thiohexanoate (CTZ hop plants [5]; 1 mM MDJ foliar spray): 0.05% | Terpene content: Myrcene (CTZ hop plants [5]; 1 mM MDJ foliar spray): 27.0% | Terpene content: Nerol (CTZ hop plants [5]; 1 mM MDJ foliar spray): 0.03% | Terpene content: Ocimene (CTZ hop plants [5]; 1 mM MDJ foliar spray): 0.39% | Terpene content: Terpinolene (CTZ hop plants [5]; 1 mM MDJ foliar spray): 0.25% | Terpene content: Unidentified (CTZ hop plants [5]; 1 mM MDJ foliar spray): 13.0% | Terpene content: Geranyl acetate 1* (CTZ hop plants [5]; 1 mM MDJ foliar spray): 0.38% | Terpene content: Geranyl acetate 2** (CTZ hop plants [5]; 1 mM MDJ foliar spray): 0.07% | Terpene content: Nerolidol 1* (CTZ hop plants [5]; 1 mM MDJ foliar spray): 0.09% | Terpene content: Nerolidol 2** (CTZ hop plants [5]; 1 mM MDJ foliar spray): 0.06% | Terpene content: 2-Undecanone (CTZ hop plants [5]; 5 mM MDJ foliar spray): 0.01% | Terpene content: Alpha-pinene (CTZ hop plants [5]; 5 mM MDJ foliar spray): 0.14% | Terpene content: Beta-ionone (CTZ hop plants [5]; 5 mM MDJ foliar spray): 0.59% | Terpene content: Beta-pinene (CTZ hop plants [5]; 5 mM MDJ foliar spray): 0.35% | Terpene content: Caryophyllene (CTZ hop plants [5]; 5 mM MDJ foliar spray): 13.4% | Terpene content: Caryophyllene oxide (CTZ hop plants [5]; 5 mM MDJ foliar spray): 0.04% | Terpene content: Citral (CTZ hop plants [5]; 5 mM MDJ foliar spray): 0.11% | Terpene content: Citronellene (CTZ hop plants [5]; 5 mM MDJ foliar spray): 0.42% | Terpene content: Citronellol (CTZ hop plants [5]; 5 mM MDJ foliar spray): 0.00% | Terpene content: Farnesene (CTZ hop plants [5]; 5 mM MDJ foliar spray): 0.03% | Terpene content: Geraniol (CTZ hop plants [5]; 5 mM MDJ foliar spray): 0.78% | Terpene content: Humulene (CTZ hop plants [5]; 5 mM MDJ foliar spray): 27.3% | Terpene content: Limonene (CTZ hop plants [5]; 5 mM MDJ foliar spray): 0.09% | Terpene content: Linalool (CTZ hop plants [5]; 5 mM MDJ foliar spray): 0.31% | Terpene content: Methyl Heptanoate (CTZ hop plants [5]; 5 mM MDJ foliar spray): 0.05% | Terpene content: Methyl Laurate (CTZ hop plants [5]; 5 mM MDJ foliar spray): 0.11% | Terpene content: Methyl Octanoate (CTZ hop plants [5]; 5 mM MDJ foliar spray): 0.31% | Terpene content: Methyl thiohexanoate (CTZ hop plants [5]; 5 mM MDJ foliar spray): 0.05% | Terpene content: Myrcene (CTZ hop plants [5]; 5 mM MDJ foliar spray): 39.0% | Terpene content: Nerol (CTZ hop plants [5]; 5 mM MDJ foliar spray): 0.00% | Terpene content: Ocimene (CTZ hop plants [5]; 5 mM MDJ foliar spray): 0.28% | Terpene content: Terpinolene (CTZ hop plants [5]; 5 mM MDJ foliar spray): 0.11% | Terpene content: Unidentified (CTZ hop plants [5]; 5 mM MDJ foliar spray): 15.7% | Terpene content: Geranyl acetate 1* (CTZ hop plants [5]; 5 mM MDJ foliar spray): 0.43% | Terpene content: Geranyl acetate 2** (CTZ hop plants [5]; 5 mM MDJ foliar spray): 0.11% | Terpene content: Nerolidol 1* (CTZ hop plants [5]; 5 mM MDJ foliar spray): 0.14% | Terpene content: Nerolidol 2** (CTZ hop plants [5]; 5 mM MDJ foliar spray): 0.12% | Terpene content: 2-Undecanone (CTZ hop plants [5]; 10 mM MDJ foliar spray): 0.07% | Terpene content: Alpha-pinene (CTZ hop plants [5]; 10 mM MDJ foliar spray): 0.11% | Terpene content: Beta-ionone (CTZ hop plants [5]; 10 mM MDJ foliar spray): 0.52% | Terpene content: Beta-pinene (CTZ hop plants [5]; 10 mM MDJ foliar spray): 0.54% | Terpene content: Caryophyllene (CTZ hop plants [5]; 10 mM MDJ foliar spray): 13.2% | Terpene content: Caryophyllene oxide (CTZ hop plants [5]; 10 mM MDJ foliar spray): 0.07% | Terpene content: Citral (CTZ hop plants [5]; 10 mM MDJ foliar spray): 0.20% | Terpene content: Citronellene (CTZ hop plants [5]; 10 mM MDJ foliar spray): 0.39% | Terpene content: Citronellol (CTZ hop plants [5]; 10 mM MDJ foliar spray): 0.00% | Terpene content: Farnesene (CTZ hop plants [5]; 10 mM MDJ foliar spray): 0.02% | Terpene content: Geraniol (CTZ hop plants [5]; 10 mM MDJ foliar spray): 0.82% | Terpene content: Humulene (CTZ hop plants [5]; 10 mM MDJ foliar spray): 24.7% | Terpene content: Limonene (CTZ hop plants [5]; 10 mM MDJ foliar spray): 0.09% | Terpene content: Linalool (CTZ hop plants [5]; 10 mM MDJ foliar spray): 0.31% | Terpene content: Methyl Heptanoate (CTZ hop plants [5]; 10 mM MDJ foliar spray): 0.06% | Terpene content: Methyl Laurate (CTZ hop plants [5]; 10 mM MDJ foliar spray): 0.19% | Terpene content: Methyl Octanoate (CTZ hop plants [5]; 10 mM MDJ foliar spray): 0.24% | Terpene content: Methyl thiohexanoate (CTZ hop plants [5]; 10 mM MDJ foliar spray): 0.02% | Terpene content: Myrcene (CTZ hop plants [5]; 10 mM MDJ foliar spray): 39.6% | Terpene content: Nerol (CTZ hop plants [5]; 10 mM MDJ foliar spray): 0.02% | Terpene content: Ocimene (CTZ hop plants [5]; 10 mM MDJ foliar spray): 0.16% | Terpene content: Terpinolene (CTZ hop plants [5]; 10 mM MDJ foliar spray): 0.05% | Terpene content: Unidentified (CTZ hop plants [5]; 10 mM MDJ foliar spray): 17.8% | Terpene content: Geranyl acetate 1* (CTZ hop plants [5]; 10 mM MDJ foliar spray): 0.38% | Terpene content: Geranyl acetate 2** (CTZ hop plants [5]; 10 mM MDJ foliar spray): 0.09% | Terpene content: Nerolidol 1* (CTZ hop plants [5]; 10 mM MDJ foliar spray): 0.17% | Terpene content: Nerolidol 2** (CTZ hop plants [5]; 10 mM MDJ foliar spray): 0.22%
